Experimental data published in PubChem BioAssay AID330 (DTP/NCI, 2004).
“And” between values parts separate entries of the source, which are not always exact repeats. Identical values can stand only once. Toxic doses and inconclusive results are not listed.

Test system: P388 leukemia ip, CD2F1 mice, survival T/C
Experiment: NCI In Vivo Anticancer Drug Screen. Data for tumor model P388 Leukemia (intraperitoneal) in CD2F1 (CDF1) mice
Settings: endpoint: median survival time, higher = longer survival
In short: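 Mice carrying the transplanted tumor received test compound or vehicle. Survival was recorded in each group, and the value is the treated-group measurement divided by that of the vehicle-treated control group.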

[1] = dose: 50.0 mg/kg/injection, schedule: Q01DX005 (ip), vehicle: saline with Tween-80
[2] = dose: 100.0 mg/kg/injection, schedule: Q01DX005 (ip), vehicle: saline with Tween-80
[3] = dose: 200.0 mg/kg/injection, schedule: Q01DX005 (ip), vehicle: saline with Tween-80
[4] = dose: 60.0 mg/kg/injection, schedule: Q01DX005 (ip), vehicle: saline
[5] = dose: 50.0 mg/kg/injection, schedule: Q01DX009 (ip), vehicle: saline with Tween-80
[6] = dose: 100.0 mg/kg/injection, schedule: Q01DX009 (ip), vehicle: saline with Tween-80
[7] = dose: 200.0 mg/kg/injection, schedule: Q01DX009 (ip), vehicle: saline with Tween-80
[8] = dose: 50.0 mg/kg/injection, schedule: Q01DX009 (ip), vehicle: Klucel (hydroxypropylcellulose) (HPC)
[9] = dose: 100.0 mg/kg/injection, schedule: Q01DX009 (ip), vehicle: Klucel (hydroxypropylcellulose) (HPC)
[10] = dose: 200.0 mg/kg/injection, schedule: Q01DX009 (ip), vehicle: Klucel (hydroxypropylcellulose) (HPC)
[11] = dose: 25.0 mg/kg/injection, schedule: Q01DX009 (ip), vehicle: saline
[12] = dose: 50.0 mg/kg/injection, schedule: Q01DX009 (ip), vehicle: saline
[13] = dose: 100.0 mg/kg/injection, schedule: Q01DX009 (ip), vehicle: saline
[14] = dose: 6.25 mg/kg/injection, schedule: Q01DX005 (ip), vehicle: saline with Tween-80
[15] = dose: 25.0 mg/kg/injection, schedule: Q01DX005 (ip), vehicle: saline with Tween-80
[16] = dose: 60.0 mg/kg/injection, schedule: Q01DX005 (ip), vehicle: saline with Tween-80
[17] = dose: 120.0 mg/kg/injection, schedule: Q01DX005 (ip), vehicle: saline with Tween-80
[18] = dose: 240.0 mg/kg/injection, schedule: Q01DX005 (ip), vehicle: saline with Tween-80

Structure (SMILES): CCCCC(CC)C(=O)OCCCNC(=O)C(C)OC(=O)C(CC)CCCC (configuration not stated)
- T/C [1]: 104 % of control
- T/C [2]: 87 % of control
- T/C [3]: 104 % of control

Structure (SMILES): COc1ccc(C[n+]2ccc3ccccc3c2)cc1
- T/C (dose: 15.0 mg/kg/injection, schedule: Q01DX005 (ip), vehicle: saline): 95 % of control
- T/C (dose: 30.0 mg/kg/injection, schedule: Q01DX005 (ip), vehicle: saline): 95 % of control
- T/C [4]: 106 % of control and 111 % of control

Structure (SMILES): COc1cccc2c1C(=O)c1c(O)c3c(c(O)c1C2=O)CC(O)(c1csc(N)n1)CC3O (configuration not stated)
- T/C (dose: 1.56 mg/kg/injection, schedule: Q01DX009 (ip), vehicle: other): 100 % of control
- T/C (dose: 3.13 mg/kg/injection, schedule: Q01DX009 (ip), vehicle: other): 107 % of control
- T/C (dose: 6.25 mg/kg/injection, schedule: Q01DX009 (ip), vehicle: other): 101 % of control
- T/C (dose: 12.5 mg/kg/injection, schedule: Q01DX009 (ip), vehicle: other): 108 % of control
- T/C (dose: 25.0 mg/kg/injection, schedule: Q01DX009 (ip), vehicle: other): 107 % of control
- T/C (dose: 50.0 mg/kg/injection, schedule: Q01DX009 (ip), vehicle: other): 108 % of control

Structure (SMILES): COc1ccccc1C(=O)C(CN(C)C)CN(C)C
- T/C (dose: 1.87 mg/kg/injection, schedule: Q01DX005 (ip), vehicle: saline): 105 % of control
- T/C (dose: 3.75 mg/kg/injection, schedule: Q01DX005 (ip), vehicle: saline): 108 % of control
- T/C (dose: 7.5 mg/kg/injection, schedule: Q01DX005 (ip), vehicle: saline): 112 % of control
- T/C [4]: 112 % of control

Structure (SMILES): ClCCCCCCOC1CCCCO1 (configuration not stated)
- T/C [5]: 110 % of control
- T/C [6]: 106 % of control
- T/C [7]: 97 % of control

Structure (SMILES): O=C(N/C(=C\c1ccccc1)C(=O)N1CCNCC1)c1ccccc1
- T/C [1]: 93 % of control
- T/C [2]: 89 % of control
- T/C [3]: 87 % of control

Structure (SMILES): CCc1cccc(CC)c1NC(=S)Nc1c(C)n(C)n(-c2ccccc2)c1=O
- T/C [8]: 106 % of control
- T/C [9]: 103 % of control
- T/C [10]: 95 % of control

Structure (SMILES): O=c1c2ccccc2sc2cccc(NCCCN3CCN(CCCNc4cccc5sc6ccccc6c(=O)c45)CC3)c12
- T/C (dose: 0.5 mg/kg/injection, schedule: Q01DX005 (ip), vehicle: saline with Tween-80): 100 % of control
- T/C (dose: 1.0 mg/kg/injection, schedule: Q01DX005 (ip), vehicle: saline with Tween-80): 99 % of control
- T/C (dose: 2.0 mg/kg/injection, schedule: Q01DX005 (ip), vehicle: saline with Tween-80): 99 % of control
- T/C (dose: 4.0 mg/kg/injection, schedule: Q01DX005 (ip), vehicle: saline with Tween-80): 95 % of control
- T/C (dose: 8.0 mg/kg/injection, schedule: Q01DX005 (ip), vehicle: saline with Tween-80): 88 % of control

Structure (SMILES): CC1(C)N=C(N)N=C(N)N1c1ccc(OCC(=O)N2CCOCC2)c(Cl)c1
- T/C [11]: 109 % of control
- T/C [12]: 116 % of control
- T/C [13]: 107 % of control
- T/C (dose: 100.0 mg/kg/injection, schedule: Q04DX003 (ip), vehicle: saline sonified): 113 % of control

Structure (SMILES): COc1ccc(CC(=O)c2ccc3c(c2O)C=CC(C)(C)O3)cc1OC
- T/C [1]: 98 % of control
- T/C [2]: 99 % of control
- T/C [3]: 89 % of control

Structure (SMILES): CCN(CC)CCOC(=O)c1ccc(NC(=O)Nc2ccc(C(=O)OCCN(CC)CC)cc2)cc1
- T/C [11]: 102 % of control
- T/C [12]: 107 % of control
- T/C [13]: 118 % of control

Structure (SMILES): CC1(C)C=Cc2c(ccc3c(=O)c(-c4ccc5c(c4)OCO5)coc23)O1
- T/C (dose: 25.0 mg/kg/injection, schedule: Q04DX002 (ip), vehicle: saline with Tween-80): 107 % of control
- T/C (dose: 50.0 mg/kg/injection, schedule: Q04DX002 (ip), vehicle: saline with Tween-80): 101 % of control
- T/C (dose: 100.0 mg/kg/injection, schedule: Q04DX002 (ip), vehicle: saline with Tween-80): 99 % of control and 108 % of control

Structure (SMILES): CCOC(=O)C1C2(C(C)=O)C(C)=Nc3c(C#N)cnn3C12C(=O)OCC (configuration not stated)
- T/C [14]: 105 % of control
- T/C (dose: 12.5 mg/kg/injection, schedule: Q01DX005 (ip), vehicle: saline with Tween-80): 100 % of control
- T/C [15]: 104 % of control
- T/C [2]: 92 % of control
- T/C [3]: 91 % of control

Structure (SMILES): CC([NH-])C(=O)O.O=C(O)CN(CC(=O)O)CC(=O)O.[Co+2]
- T/C [11]: 104 % of control
- T/C [12]: 113 % of control
- T/C [13]: 104 % of control and 90 % of control

Structure (SMILES): CCOc1ccccc1C(=O)Nc1ccc(Br)cc1
- T/C [8]: 100 % of control
- T/C [9]: 99 % of control
- T/C [6]: 112 % of control
- T/C (dose: 100.0 mg/kg/injection, schedule: Q04DX003 (ip), vehicle: saline with Tween-80): 100 % of control
- T/C [10]: 106 % of control
- T/C [7]: 104 % of control
- T/C (dose: 200.0 mg/kg/injection, schedule: Q04DX003 (ip), vehicle: saline with Tween-80): 100 % of control
- T/C (dose: 400.0 mg/kg/injection, schedule: Q01DX009 (ip), vehicle: Klucel (hydroxypropylcellulose) (HPC)): 97 % of control
- T/C (dose: 400.0 mg/kg/injection, schedule: Q01DX009 (ip), vehicle: saline with Tween-80): 91 % of control
- T/C (dose: 400.0 mg/kg/injection, schedule: Q04DX003 (ip), vehicle: saline with Tween-80): 95 % of control

Structure (SMILES): CCCCC(=O)N1C(=O)/C(=C\N(C)C)c2cc(C=O)ccc21
- T/C [5]: 90 % of control
- T/C [6]: 90 % of control
- T/C [7]: 90 % of control

Structure (SMILES): N#CCC1(c2ccccc2)CCCCC1
- T/C [5]: 97 % of control
- T/C [6]: 107 % of control
- T/C [7]: 107 % of control

Structure (SMILES): COc1ccc(OC)c(NC(=O)OCc2ccc3c(c2)OCO3)c1
- T/C [16]: 98 % of control
- T/C [17]: 95 % of control
- T/C [18]: 93 % of control

Structure (SMILES): O=[N+]([O-])c1ccc(/C=C/C=C\c2ccc(S(=O)(=O)F)cc2Cl)cc1
- T/C [16]: 94 % of control
- T/C [17]: 96 % of control
- T/C [18]: 95 % of control

Structure (SMILES): CCC(C)c1cnc(CC(C)C)c(=O)n1O (configuration not stated)
- T/C (dose: 6.25 mg/kg/injection, schedule: Q01DX009 (ip), vehicle: saline with Tween-80): 90 % of control
- T/C (dose: 12.5 mg/kg/injection, schedule: Q01DX009 (ip), vehicle: saline with Tween-80): 91 % of control
- T/C (dose: 25.0 mg/kg/injection, schedule: Q01DX009 (ip), vehicle: saline with Tween-80): 94 % of control
- T/C [5]: 100 % of control

Structure (SMILES): O=S(=O)(c1ccccc1)N1CN2CCN(C2)C1
- T/C [5]: 123 % of control
- T/C [7]: 150 % of control

Structure (SMILES): CC(C)n1c(Cl)c(C=O)c2ccccc21
- T/C (dose: 100.0 mg/kg/injection, schedule: Q01DX001 (ip), vehicle: Klucel (hydroxypropylcellulose) (HPC)): 94 % of control
- T/C (dose: 200.0 mg/kg/injection, schedule: Q01DX001 (ip), vehicle: Klucel (hydroxypropylcellulose) (HPC)): 87 % of control
- T/C (dose: 400.0 mg/kg/injection, schedule: Q01DX001 (ip), vehicle: Klucel (hydroxypropylcellulose) (HPC)): 98 % of control

Structure (SMILES): ClC(Cl)=[C](Cl)[Hg][C](Cl)=C(Cl)Cl
- T/C (dose: 3.13 mg/kg/injection, schedule: Q01DX009 (ip), vehicle: Klucel (hydroxypropylcellulose) (HPC)): 105 % of control
- T/C (dose: 6.25 mg/kg/injection, schedule: Q01DX009 (ip), vehicle: Klucel (hydroxypropylcellulose) (HPC)): 100 % of control
- T/C (dose: 12.5 mg/kg/injection, schedule: Q01DX009 (ip), vehicle: Klucel (hydroxypropylcellulose) (HPC)): 97 % of control

Structure (SMILES): COc1ccc2c(c1)n([O-])c1ccccc1[n+]2=O
- T/C [15]: 122 % of control
- T/C [2]: 157 % of control and 172 % of control

Structure (SMILES): CCOP(=O)(O)C1CCCC(C)[N-]1.CCOP(=O)(O)C1CCCC(C)[N-]1.[Co+2] (configuration not stated)
- T/C (dose: 25.0 mg/kg/injection, schedule: Q04DX003 (ip), vehicle: Klucel (hydroxypropylcellulose) (HPC)): 107 % of control
- T/C (dose: 50.0 mg/kg/injection, schedule: Q04DX003 (ip), vehicle: Klucel (hydroxypropylcellulose) (HPC)): 95 % of control
- T/C (dose: 100.0 mg/kg/injection, schedule: Q04DX003 (ip), vehicle: Klucel (hydroxypropylcellulose) (HPC)): 99 % of control and 105 % of control

Structure (SMILES): CN(C)c1ccc(C2(c3ccc(N(C)C)cc3)NNC(=O)c3cc(N(C)C)ccc32)cc1
- T/C (dose: 1.5 mg/kg/injection, schedule: Q01DX005 (ip), vehicle: saline): 100 % of control
- T/C (dose: 3.0 mg/kg/injection, schedule: Q01DX005 (ip), vehicle: saline): 93 % of control
- T/C (dose: 6.0 mg/kg/injection, schedule: Q01DX005 (ip), vehicle: saline): 95 % of control
- T/C [14]: 92 % of control

Structure (SMILES): O=c1[nH]c2cc(Cl)ccc2nc1/C=C(\O)c1ccc2ccccc2c1
- T/C [16]: 89 % of control
- T/C [17]: 89 % of control
- T/C [18]: 110 % of control
